Among the data in patent US20110281807A1, “PLANT DISEASE CONTROL AGENT COMPRISING D-TAGATOSE AS ACTIVE INGREDIENT, AND PLANT DISEASE CONTROL METHOD” (NATIONAL UNIVERSITY CORPORATION KAGAWA UNIVERSITY, priority 2008, published 2011) are Preventive value and pest or weed control values, retold here.

Structures can show the parent of a compound that is named as a salt. Where two headings read alike, the source gives them in different places.

One experiment deals with Pythium aphanidermatum. Briefly: cucumber damping-off, pot test: soil drench of D-tagatose combined with fungicides. Conditions: for Preventive value: alone, soil drench.
The next experiment relates to Botrytis cinerea. The following applies: for Preventive value: tomato, compound alone.
Experiment [1] deals with Pseudoperonospora cubensis. Conditions: for Preventive value: alone, curative.
Procedure: Test plants (cucumber, variety: Sagami hanpaku) were seeded and grown until the one true leaf stage. And then, a sporangium suspension of Pseudoperonospora cubensis containing 1×10^3/ml were spraying for inoculation on the back side of the leaves of test plants and then put for 16 hours in an inoculation chamber (20° C. to 23° C.) to promote disease. For a curative test, the inoculated plants as described above were used.
D-Tagatose was diluted to 5000 ppm and the fungicides were diluted to the concentrations listed in table 15, with distilled water, and 10 ml of the dilution was sprayed. Seven days after inoculation the disease severity of the test plants was observed and the effectiveness of test sample was judged.
For another experiment, the system named is Sphaerotheca fuliginea. The following applies: for Preventive value: cucumber, compound alone.
Another experiment deals with Phytophthora infestans. Kind of experiment: whole plant or invertebrate. The experiment is classed as in vivo. Conditions: for Preventive value: alone.
A further experiment relates to Pyricularia oryze. Briefly: whole plant or invertebrate. The format is in vivo. Conditions: for Preventive value: rice, compound alone; for pest or weed control at 10 ppm / pest or weed control at 250 ppm: Pyricularia, in Oryza sativa, 168 h, read-out: Preventive value.
A further experiment has as its system Plasmopara viticola. The following applies: for Preventive value: alone.
For experiment [2], the system named is Erysiphe graminis f.sp. hordei. Conditions: for Preventive value: barley, compound alone.
Procedure: Test plants (barley, variety: Akashinriki) were seeded and grown until the one leaf stage. D-tagatose and fungicide were diluted to 5000 ppm and the concentrations listed in table 21, respectively, with distilled water and 10 ml of the dilution was sprayed thoroughly on the plants. Three days after spraying, a condia suspension of Erysiphe graminis f.sp. hordei was inoculated by spraying on test plants. 7 days after inoculation the disease severity of the test plants was observed and the effectiveness of test sample was judged.
Experiment [3] has as its system Pseudoperonospora cubensis. Conditions: for Preventive value: alone.
Procedure: Test plants (cucumber, variety: Sagami hanpaku) were seeded and grown until the one true leaf stage. D-Tagatose was diluted to 5000 ppm and the fungicides were diluted to the concentrations listed in table 14, with distilled water. And then 10 ml of the dilution was sprayed on the test plant. Three days after spraying of the solution, a sporangium suspension of Pseudoperonospora cubensis containing 1×10^3/ml were inoculated by spraying on test plants and then put for 16 hours in an inoculation chamber (20° C. to 23° C.) to promote disease. Seven days after inoculation the disease severity of the test plants was observed and the effectiveness of the test sample was judged. Tests were carried out using two plants for each test set and the disease severity of the test plants was judged in accordance with the following criteria. The preventive value was calculated from the degree of disease severity.
0 (No lesion) 1 (Lesion area was not more than 40%) 2 ((Lesion area was 40%-80%) 3 (Lesion area was not less than 80%)
Preventive value=100{1−(n/N)} N=disease severity of untreated leaf, n=disease severity of the test leaf Synergistic effect was determined by Colby's equation.
The next experiment has as its system Puccinia recondita. Conditions: for Preventive value: wheat, compound alone; for pest or weed control at 250 ppm / pest or weed control at 2 ppm / pest or weed control at 50 ppm: Puccinia recondita, in Triticum aestivum, 168 h, read-out: Preventive value.
The mark [4] stands for this setting: Botrytis cinerea, in Solanum lycopersicum, 168 h, read-out: Preventive value.
Setting [5] is: Pseudoperonospora cubensis, in Cucumis sativus, 168 h, read-out: Preventive value.
Where [6] appears, read: Podosphaera fuliginea, in Cucumis sativus, 168 h, read-out: Preventive value.
Setting [7] is: Phytophthora infestans, in Solanum lycopersicum, 168 h, read-out: Preventive value.
Where [8] appears, read: Plasmopara viticola, 168 h, read-out: Preventive value.
The mark [9] stands for this setting: Blumeria graminis, in Hordeum vulgare, 168 h, read-out: Preventive value.
The mark [10] stands for this setting: Pythium aphanidermatum, in Cucumis sativus, soil, 336 h, read-out: Preventive value.

Procedure for Botrytis cinerea: Test plants (tomato, variety: Ogata-fukujyu) were seeded and grown until the three leaf stage. D-Tagatose and fungicide were diluted to 10000 ppm and the concentrations liste in table 23, respectively, with distilled water and 10 ml of the dilution was sprayed on the plants. Three days after spraying the solution, condia suspension of Botrytis cinerea were inoculated by spraying on test plants and then put for 16 hours in an inoculation chamber (20° C. to 23° C.) to promote disease. Seven days after inoculation, the disease severity of the test plants was observed and the effectiveness of test sample was judged.
Procedure for Plasmopara viticola: Test plants (variety: Neo Muscat) were seeded and grown until three leaves. D-Tagatose was diluted to 5000 ppm and the fungicides were diluted to the concentrations listed in table 16, with distilled water, and 10 ml of the dilution was sprayed on the plants. Three days after the spraying of the dilution, the plants were infected by spraying a sporangium suspension of Plasmopara viticola containing 1×10^3/ml and then put for 16 hours in an inoculation chamber (20° C. to 23° C.) to promote disease. The disease severity of the test plants was observed 7 days after inoculation, and the effectiveness of test sample was judged.
Procedure for Puccinia recondita: Test plants (variety: Nourin 61 gou) were sowed and grown until two leaves stage.
D-Tagatose and fungicide were diluted to 10000 ppm and the concentration listed in table 19, respectively, with distilled water, and 10 ml of the dilution was sprayed thoroughly on the plants. Three days after the spraying of the dilution, the plants were inoculated with Puccinia recondita containing 1×10^3/ml and then put for 16 hours in an inoculation chamber (20° C. to 23° C.) to promote disease. Seven days after inoculation the disease severity of the test plants was observed and the effectiveness of test sample was judged.
Procedure for Pythium aphanidermatum: Five seeds of test plants (cucumber, variety: Sagami hanpaku) were sowed in a pot (5×5 cm), which contains infested soil with Pythium aphanidermatum (mycelium 100 g/1 L soil) and was covered with soil. D-Tagatose was diluted to 5000 ppm and the fungicides were diluted to the concentrations listed in table 18, with distilled water. The pot was drenched with 10 ml of the dilution. After 2 weeks, the disease severity of the test plants was observed and the effectiveness of test sample was judged. Tests were carried out in triplicate using 5 plants for each test set and the preventive value was calculated from the germination rate.
Procedure for Sphaerotheca fuliginea: Test plants (cucumber, variety: Sagami hanpaku) were seeded and grown until the one true leaf stage. D-Tagatose and fungicide were diluted to 5000 ppm and the concentrations listed in table 20, respectively, with distilled water and 10 ml of the dilution was sprayed thoroughly on the plants. Three days after spraying, a condia suspension containing of Sphaerotheca fuliginea were inoculated by spraying on test plants.
Seven days after inoculation the disease severity of the test plants was observed and the effectiveness of test sample was judged.

In the case of `Cc1c(Br)c2ccc(F)cc2n1S(=O)(=O)c1ncn(S(=O)(=O)N(C)C)n1` [amisulbrom], the Preventive value with Pythium aphanidermatum (50 ppm) turned out to be 83.

Take `CO/C=C(/C(=O)OC)c1ccccc1Oc1cc(Oc2ccccc2C#N)ncn1` [azoxystrobin]: the Preventive value came to 50 in the experiment on Botrytis cinerea (50 ppm); 50 in [1] (10 ppm); 67 in the experiment on Sphaerotheca fuliginea (0.4 ppm); 83 with Phytophthora infestans (10 ppm); 83 with Pyricularia oryze (10 ppm); 83 with Plasmopara viticola (10 ppm). Moreover, the Preventive value in experiment [2] (0.4 ppm) was 50; in the experiment with Pythium aphanidermatum (50 ppm), 50; in [3] (10 ppm), 50; in the experiment on Puccinia recondita (2 ppm) it was 83.

Regarding `CC(C)OC(=O)N[C@H](C(=O)N[C@H](C)c1nc2ccc(F)cc2s1)C(C)C` [benthiavalicarb-isopropyl], the pest or weed control at 250 ppm (in the experiment with Botrytis cinerea (setting [4]); with Sphaerotheca fuliginea (setting [6]); in experiment [2] (setting [9]); in the experiment on Pythium aphanidermatum (setting [10]); with Puccinia recondita) was 0% in each case. The pest or weed control at 0.4 ppm was 33% in experiment [1] (setting [5]), 73% in the experiment on Phytophthora infestans (setting [7]), 50% in the experiment with Plasmopara viticola (setting [8]) and 73% in experiment [3] (setting [5]).

In the case of `O=C(Nc1ccccc1-c1ccc(Cl)cc1)c1cccnc1Cl` [boscalid], in the experiment on Botrytis cinerea (setting [4]), the pest or weed control at 10 ppm is 67%. For the same molecule, the pest or weed control at 0.4 ppm came out at 67% with Sphaerotheca fuliginea (setting [6]) and 17% in experiment [2] (setting [9]). The pest or weed control at 2 ppm in the experiment on Puccinia recondita came to 67%.

In the case of `N#Cc1c(Cl)c(Cl)c(Cl)c(C#N)c1Cl` [chlorothalonil], the pest or weed control at 50 ppm with Botrytis cinerea (setting [4]) stood at 67%; in experiment [1] (setting [5]), 0%; with Sphaerotheca fuliginea (setting [6]), 50%; in the experiment on Phytophthora infestans (setting [7]), 83%; in the experiment with Plasmopara viticola (setting [8]), 73%; in experiment [2] (setting [9]) it was 33%. Further, the pest or weed control at 50 ppm (in [3] (setting [5]); with Puccinia recondita) was 83% each time.

For the molecule `[Cu+2].[OH-].[OH-]` [cupric hydroxide], the Preventive value is reported as 0 in [1] (50 ppm), 50 in the experiment with Phytophthora infestans (50 ppm), 0 with Plasmopara viticola (50 ppm) and 40 in experiment [3] (50 ppm).

For the molecule `O=C(Cc1ccccc1)N/C(=N\OCC1CC1)c1c(C(F)(F)F)ccc(F)c1F` [cyflufenamid], the pest or weed control at 0.4 ppm in the experiment on Sphaerotheca fuliginea (setting [6]) worked out at 50%; in experiment [2] (setting [9]), 67%.

Turning to `CCNC(=O)NC(=O)/C(C#N)=N/OC` [cymoxanil], the pest or weed control at 50 ppm in experiment [1] (setting [5]) is 83%; with Phytophthora infestans (setting [7]), 83%; with Plasmopara viticola (setting [8]), 73%; in [3] (setting [5]), 33%. Besides, the pest or weed control at 250 ppm in the experiment with Pythium aphanidermatum (setting [10]) was 17%.

Turning to `COc1ccc(C(=CC(=O)N2CCOCC2)c2ccc(Cl)cc2)cc1OC` [dimethomorph], the pest or weed control at 10 ppm stood at 40% in experiment [1] (setting [5]), 73% in the experiment on Phytophthora infestans (setting [7]), 50% in the experiment on Plasmopara viticola (setting [8]) and 67% in experiment [3] (setting [5]). Moreover, in the experiment with Pythium aphanidermatum (setting [10]), the pest or weed control at 250 ppm amounted to 0%.

In the case of `CSC1=N[C@@](C)(c2ccccc2)C(=O)N1Nc1ccccc1` [fenamidone], the pest or weed control at 2 ppm in experiment [1] (setting [5]) came out at 33%; in the experiment with Phytophthora infestans (setting [7]), 83%; in the experiment on Plasmopara viticola (setting [8]) it was 83%; in [3] (setting [5]), 33%. Also, in the experiment on Pythium aphanidermatum (setting [10]), the pest or weed control at 10 ppm stood at 50%.

For the molecule `O=[N+]([O-])c1cc(C(F)(F)F)c(Cl)c([N+](=O)[O-])c1Nc1ncc(C(F)(F)F)cc1Cl` [fluazinam], the pest or weed control at 50 ppm in the experiment with Botrytis cinerea (setting [4]) is 67%; with Puccinia recondita it was 83%. The pest or weed control at 10 ppm in [1] (setting [5]) was 0%; in the experiment on Phytophthora infestans (setting [7]), 83%; in the experiment on Pyricularia oryze it was 50%; in the experiment on Plasmopara viticola (setting [8]) it was 83%; in [3] (setting [5]), 97%. Further, the pest or weed control at 250 ppm (in the experiment with Sphaerotheca fuliginea (setting [6]); in experiment [2] (setting [9])) was 83% throughout.

On to `O=C(NCc1ncc(C(F)(F)F)cc1Cl)c1c(Cl)cccc1Cl` [fluopicolide], for which the Preventive value is 83 in [1] (10 ppm); 83 with Phytophthora infestans (10 ppm); 0 in the experiment with Pyricularia oryze (250 ppm); 73 in the experiment on Plasmopara viticola (10 ppm); 83 in the experiment with Pythium aphanidermatum (250 ppm); 83 in [3] (10 ppm).

With `CCO[PH](=O)O` [fosethyl], the Preventive value worked out at 0 in experiment [1] (250 ppm); 17 in the experiment on Sphaerotheca fuliginea (250 ppm); 33 in the experiment on Phytophthora infestans (250 ppm); 0 with Plasmopara viticola (250 ppm); 17 in experiment [2] (250 ppm); 0 with Pythium aphanidermatum (250 ppm). The Preventive value (in experiment [3] (250 ppm); in the experiment with Puccinia recondita (250 ppm)) was 0 throughout.

Consider `O=C1OCc2c(Cl)c(Cl)c(Cl)c(Cl)c21` [fthalide], for which the pest or weed control at 10 ppm with Pyricularia oryze stood at 50%.

Turning to `CCCCCCCCCCCCc1ccc(S(=O)(=O)O)cc1.CCCCCCCCCCCCc1ccc(S(=O)(=O)O)cc1.CCCCCCCCCCCCc1ccc(S(=O)(=O)O)cc1.NC(N)=NCCCCCCCCNCCCCCCCCN=C(N)N` [iminoctadine albesilate], the Preventive value in the experiment with Botrytis cinerea (10 ppm) stood at 67; in experiment [1] (250 ppm), 0; in the experiment with Sphaerotheca fuliginea (50 ppm) it was 83; with Phytophthora infestans (250 ppm) it was 0; with Pyricularia oryze (250 ppm), 50; in the experiment on Plasmopara viticola (250 ppm), 0. The Preventive value in experiment [2] (50 ppm) worked out at 17; in experiment [3] (250 ppm), 40; in the experiment with Puccinia recondita (250 ppm), 40.

Take `CC(C)NC(=O)N1CC(=O)N(c2cc(Cl)cc(Cl)c2)C1=O` [iprodione]: in the experiment on Botrytis cinerea (setting [4]), the pest or weed control at 2 ppm stood at 40%. For the same molecule, the pest or weed control at 250 ppm was 33% in the experiment on Sphaerotheca fuliginea (setting [6]), 0% with Pyricularia oryze, 17% in [2] (setting [9]) and 33% in the experiment on Puccinia recondita.

In the case of `C[C@H]1O[C@H](O[C@H]2[C@H](O)[C@@H](O)[C@@H](O)[C@H](O)[C@@H]2O)[C@@H](N)C[C@@H]1NC(=N)C(=O)O` [kasugamycin], the Preventive value in the experiment on Pyricularia oryze (10 ppm) was 73.

Turning to `C#CCOc1ccc(CCNC(=O)C(OCC#C)c2ccc(Cl)cc2)cc1OC` (centres unmarked) [mandipropamid], the Preventive value in experiment [1] (0.4 ppm) was 40; in the experiment on Phytophthora infestans (0.4 ppm) it was 73; in the experiment with Plasmopara viticola (0.4 ppm), 73; in experiment [3] (0.4 ppm), 67.

With `CCCOC(=O)NCCCN(C)C` [propamocarb hydrochloride], the pest or weed control at 250 ppm in experiment [1] (setting [5]) is 40%; in the experiment with Phytophthora infestans (setting [7]) it was 67%; with Plasmopara viticola (setting [8]), 33%; in the experiment with Pythium aphanidermatum (setting [10]) it was 0%; in [3] (setting [5]) it was 67%.

For `Fc1ccc(Oc2ccnc3cc(Cl)cc(Cl)c23)cc1` [quinoxyfen], the pest or weed control at 250 ppm with Botrytis cinerea (setting [4]) and in the experiment with Puccinia recondita was 0% each time. The pest or weed control at 2 ppm in the experiment with Sphaerotheca fuliginea (setting [6]) was 83%; in experiment [2] (setting [9]) it was 93%.

In the case of `Cc1cccc2sc3nncn3c12` [tricyclazole], the pest or weed control at 10 ppm with Pyricularia oryze came out at 50%.

On to `CCCOC/C(=N\c1ccc(Cl)cc1C(F)(F)F)n1ccnc1` [triflumizole], for which the pest or weed control at 50 ppm in the experiment with Botrytis cinerea (setting [4]) stood at 67%. Besides, the pest or weed control at 0.4 ppm in the experiment on Sphaerotheca fuliginea (setting [6]) came out at 97%; in experiment [2] (setting [9]), 50%. For the same molecule, in the experiment with Puccinia recondita, the pest or weed control at 2 ppm worked out at 40%.

Turning to `OCC1=C[C@H](N[C@H]2C[C@H](CO)[C@@H](O[C@@H]3O[C@H](CO)[C@@H](O)[C@H](O)[C@H]3O)[C@H](O)[C@H]2O)[C@H](O)[C@@H](O)[C@@H]1O` [validamycin], the pest or weed control at 10 ppm in the experiment on Pyricularia oryze was 50%.

As to `CCC(C)(NC(=O)c1cc(Cl)c(C)c(Cl)c1)C(=O)CCl` (centres unmarked) [zoxamide], the pest or weed control at 2 ppm in experiment [1] (setting [5]) was determined as 33%; with Phytophthora infestans (setting [7]) it was 50%; in the experiment on Plasmopara viticola (setting [8]), 83%; in experiment [3] (setting [5]), 67%. Moreover, the pest or weed control at 250 ppm with Pyricularia oryze and in the experiment on Pythium aphanidermatum (setting [10]) was 0% in each case.

Take manzeb: the Preventive value was found to be 40 in the experiment with Botrytis cinerea (50 ppm); 0 in experiment [1] (10 ppm); 50 with Sphaerotheca fuliginea (50 ppm); 67 in the experiment on Phytophthora infestans (10 ppm); 33 with Plasmopara viticola (10 ppm); 40 in experiment [2] (50 ppm). Further, the results for the Preventive value (in experiment [3] (10 ppm); in the experiment on Puccinia recondita (50 ppm)) were 90 and 83, respectively.
